Laboratory results as given in patent US6492124B1, “Trance activated signal transduction pathways in osteoclasts” (The Rockefeller University, priority 1999, dated 2002).

How the values were obtained:
Format in all cases: cell-based, mouse
PKB [1] = experiment: PKB activation in osteoclasts (phospho-PKB Western blot); conditions: for TRANCE-induced PKB activation (phosphorylated form of PKB): osteoclasts pretreated 90 min with inhibitor 10 μM, then TRANCE 1 μg/ml
Procedure: (§1) FIG. 1. […] (A) Mature bone marrow-derived osteoclasts were stimulated for the indicated times with recombinant hCD8-TRANCE (TRANCE; 1 μg/ml). Levels of phosphorylated forms of p44/p42 ERK (p44 ERK^P and p42 ERK^P), IκBα (IκB-α^P) and PKB (PKB^P) in whole cell extracts were determined using phospho-peptide-specific antibodies as indicated in the figure. […] (B) as in (A) except the use of mature bone marrow-derived dendritic cells instead of osteoclasts.
(§2) FIG. 2. […] (A) Osteoclasts were serum starved and then pretreated for 90 min with LY294002 (10 μM), Herbimycin A (Herb. A; 10 μM), and PP1 (10 μM) inhibitors which are specific for PI3-kinase, PTKs, and Src-family kinases, respectively, were stimulated for indicated times with TRANCE (1 μg/ml). Levels of phosphorylated p44/p42 ERK, PKB, and IκB-α were determined as described in FIG. 1. Cells pretreated with vehicle (DMSO) were used as a negative control. (B) as in (A) except the use of mature bone marrow-derived dendritic cells.
(§3) Primary cells and cell lines. […] In brief, bone marrow cells from tibiae and femur of 4-6 week old mice (C57BL/6, Jackson Laboratories) were cultured overnight in media (α-MEM, 10% FCS) in the presence of CSF-1 (5 ng/ml). […] For experiments described in this study, only adherent cells were used after extensive washing. […] After allowing them adhere for 2 hours to a tissue culture dish, contaminating floater cells were washed away and mature dendritic cells were obtained by overnight culture.
(§4) Cell stimulation, cell transfection and in vitro assays. In vitro differentiated mature dendritic cells, macrophages and osteoclasts were washed to remove exogenous growth factors, cultured in media with low serum (0.5% FCS, 6 hours), then stimulated by adding various cytokines in the presence or absence of inhibitors for various times as indicated. After stimulation, the cells were washed in ice-cold PBS, and subjected to Western blot analysis or immunoprecipitation as described below.
All cells were harvested and lysed in extraction buffer (20 mM HEPES NaOH (pH 7.4), 150 mM NaCl, 1% Triton X-100, 10% glycerol, 10 mM EDTA, 1 mM Na3VO4, 1 mM phenylmethylsulfonylfluoride, 1 μg/ml leupeptin, and 0.1 U of aprotinin per ml) and cleared by centrifugation to obtain whole cell extracts. Protein assays were performed to ensure equal amounts of lysates were used in each sample.

NF-κB = NF-κB activation measured by IκB-α phosphorylation/degradation in osteoclasts and dendritic cells (Western blot); conditions: osteoclasts and dendritic cells (FIGS. 2A and 2B), inhibitor 10 μM, TRANCE 1 μg/ml
Procedure: as §1, §2, §3
as §4, with “below. […]” for “below.”

osteoclasts = experiment: Osteoclast differentiation with TRANCE plus CSF-1 (TRAP solution assay); conditions: TRANCE 100 ng/ml plus CSF-1 50 ng/ml; LY294002 200 nM and 800 nM
Procedure: FIG. 3. c-Src is required for TRANCE-induced PKB activation and osteoclast survival. (A) c-Src was immunoprecipitated from osteoclasts, dendritic cells and macrophages stimulated with TRANCE (1 μg/ml) for the indicated times using an anti-c-Src-specific monoclonal antibody (327). PTK activity of the c-Src immunprecipitates were measured in vitro using SAM68, a PTK specific substrate. The degree of SAM68 phosphorylation was determined by Western blot analysis using an anti-phospho-tyrosine antibody (4G10) and densitometry. Note that c-Src kinase activity was not detectable in TRANCE-treated macrophages most likely due to low levels of c-Src in these cells (Lacey, et al., supra, 1998). (B) Osteoclasts derived from wild type and c-Src deficient mice were stimulated with TRANCE (5 μg/ml) for 10 min and the levels of phosphorylated PKB (PKB^P), total PKB, and total IκBα were determined as in FIG. 1. (C) Osteoclasts from wild-type (open bars) and c-Src deficient (solid bars) mice were washed and then cultured for an additional 24 hours in media alone (Medium) or in media with TRANCE (5 μg/ml) or CSF-1 (10 ng/ml). TRAP solution assays were performed and percent survival calculated. The experiment was performed in triplicate and the mean values with positive standard deviations are shown. […] Osteoclasts were detected by TRAP solution assays. […]

PKB [2] = experiment: PKB activation in dendritic cells (phospho-PKB Western blot)
Procedure: FIG. 1. TRANCE activates p44/42 ERK, NF-κB and PKB in osteoclasts and dendritic cells. (A) Mature bone marrow-derived osteoclasts were stimulated for the indicated times with recombinant hCD8-TRANCE (TRANCE; 1 μg/ml). Levels of phosphorylated forms of p44/p42 ERK (p44 ERK^P and p42 ERK^P), IκBα (IκB-α^P) and PKB (PKB^P) in whole cell extracts were determined using phospho-peptide-specific antibodies as indicated in the figure. The membranes were stripped and incubated with antibodies against the p44/p42 ERK, IκB-α, and PKB as indicated to confirm that similar amounts of whole cell extracts were analyzed. Note the decrease of IκB-α after 10 min of treatment due to its degradation. (B) as in (A) except the use of mature bone marrow-derived dendritic cells instead of osteoclasts.
FIG. 2. TRANCE-induced PKB activation in osteoclasts and dendritic cells is blocked by inhibitors of PI3-kinase, tyrosine kinases and Src family kinases. (A) Osteoclasts were serum starved and then pretreated for 90 min with LY294002 (10 μM), Herbimycin A (Herb. A; 10 μM), and PP1 (10 μM) inhibitors which are specific for PI3-kinase, PTKs, and Src-family kinases, respectively, were stimulated for indicated times with TRANCE (1 μg/ml). Levels of phosphorylated p44/p42 ERK, PKB, and IκB-α were determined as described in FIG. 1. Cells pretreated with vehicle (DMSO) were used as a negative control. (B) as in (A) except the use of mature bone marrow-derived dendritic cells.
FIG. 6. Cytokine receptors that engage TRAF6 activate PKB through Src-family kinases. (A) Dendritic cells were treated with TNF (10 ng/ml), TRANCE (5 μg/ml), LPS (50 μg/ml), or IL-1α (20 ng/ml) for the indicated times (min). The activation of PKB was determined in whole cell extracts using a phospho-PKB-specific antibody as described in FIG. 1. (B) Dendritic cells were pretreated with vehicle (DMSO) or the Src-family kinase inhibitor, PP1 (10 μM) for 90 minutes followed by a 15 minute treatment with TRANCE (5 μg/ml), LPS (50 μg/ml), or IL-1α (20 ng/ml) or no treatment at all (−). The activation of PKB was determined as described in FIG. 1.
Primary cells and cell lines. Osteoclasts and macrophages were generated from bone marrow precursors as described (Wani, et al., Endocrinology, 140:[…], 1999). In brief, bone marrow cells from tibiae and femur of 4-6 week old mice (C57BL/6, Jackson Laboratories) were cultured overnight in media (α-MEM, 10% FCS) in the presence of CSF-1 (5 ng/ml). After 24 hours, non-adherent cells were harvested, washed, and further cultured in media with CSF-1 (50 ng/ml) plus TRANCE (10 ng/ml) to develop osteoclasts, or with CSF-1 alone to develop macrophages. Using these conditions, after 4 days of culture, greater than 95 percent of the adherent cells were osteoclasts or macrophages. For experiments described in this study, only adherent cells were used after extensive washing. Mature dendritic cells were generated from bone marrow precursors of 4-6 week old female C57BL/6 mice (C57BL/6, Jackson Laboratories) cultured in media (RPMI1640, 5% FBS) and GM-CSF (1:30 cultured supernatant from the J558 cell line, a gift from Dr. R. M. Steinman, The Rockefeller University) for 8 days as previously described (Inaba, et al., J. Exp. Med., 176:1693-1702, 1992). To generate osteoclasts and dendritic cells from c-Src deficient mice, spleen cells, which contain hematopoietic precursors due to extramedullary hematopoeisis, were substituted for bone marrow cells as previously described (Schwartzberg, et al., Genes Dev., 11:2835-2844, 1997). Mature spleen-derived dendritic cells were isolated from spleens treated with collagenase (40 U/ml; Boehinger Mannheim) and subjected to a Nycodenz centrifugation gradient (14.5%; Nycomed) to obtain low density cells. After allowing them adhere for 2 hours to a tissue culture dish, contaminating floater cells were washed away and mature dendritic cells were obtained by overnight culture.
Cell stimulation, cell transfection and in vitro assays. […]

mature osteoclasts = experiment: Osteoclast survival assay (TRAP solution assay); conditions: 24 hours; TRANCE 5 μg/ml or CSF-1 10 ng/ml
Procedure: TRAP solution assays were performed and percent survival calculated. The experiment was performed in triplicate and the mean values with positive standard deviations are shown. […] (E) Mature osteoclasts were washed extensively and then cultured for an additional 24 hr in media without (−) or with TRANCE (5 μg/ml; +) in the absence or presence of increasing doses (200 nM and 800 nM) of LY294002. TRAP solution assays were performed and percent survival was as described in Experimental Procedures. The experiment was performed in triplicate and the mean values with positive standard deviations are shown.
Osteoclast survival assays. In vitro differentiated mature osteoclasts were washed 3 times in media then further cultured for 24 hr in media alone (control) or in media with TRANCE (5 μg/ml) or CSF-1 (10 ng/ml) in the presence or absence of LY294002 as indicated.
Specific cell survival (%)=(A405, 24 hr−A405. background)*100/(A405, 0 hr−A405, background)

## COc1cccc(-c2cc(=O)c3ccccc3o2)c1N [PD98059, reference compound]
PKB [1]; MEK inhibitor, cell type not stated (osteoclasts and dendritic cells studied), data not shown
  TRANCE-induced PKB activation: failed to inhibit

## CO[C@H]1[C@@H](OC)C[C@H](C)[C@@H](OC)C2=CC(=O)C=C(NC(=O)/C(C)=C/C=C\[C@H](OC)[C@@H](OC(N)=O)/C(C)=C/[C@@H]1C)C2=O [herbimycin A, reference compound]
PKB [1]
  TRANCE-induced PKB activation (phosphorylated form of PKB): blocked
NF-κB
  NF-κB activation as measured by IκB-α degradation: neither LY294002, herbimycin A, nor PP1 significantly affected

## O=c1cc(N2CCOCC2)oc2c(-c3ccccc3)cccc12 [LY294002]
osteoclasts
  osteoclast differentiation: did not inhibit

## Cc1ccc(-c2nn(C(C)(C)C)c3ncnc(N)c23)cc1 [PP1, reference compound]
PKB [1]
  TRANCE-induced PKB activation (phosphorylated form of PKB): blocked
PKB [2]; dendritic cells pretreated 90 min with inhibitor 10 μM, then TRANCE 1 μg/ml
  TRANCE-induced PKB activation (phosphorylated form of PKB): inhibited
PKB [2]; dendritic cells pretreated with PP1 10 μM 90 minutes, then IL-1α 20 ng/ml 15 minutes
  activation of PKB by IL-1α: inhibited
PKB [2]; dendritic cells pretreated with PP1 10 μM 90 minutes, then LPS 50 μg/ml 15 minutes
  activation of PKB by LPS: inhibited
NF-κB
  NF-κB activation as measured by IκB-α degradation: neither LY294002, herbimycin A, nor PP1 significantly affected

B1: CSF-1: recombinant CSF-1 purchased from R&D Systems (protein, UniProt P09603 33-554, looked up)
Macrophage colony-stimulating …: EEVSEYCSHMIGSGHLQSLQRLIDSQMETSCQITFEFVDQEQLKDPVCYLKKAFLLVQDIMEDTMRFRDNTPNAIAIVQLQELSLRLKSCFTKDYEEHDKACVRTFYETPLQLLEKVKNVFNETKNLLDKDWNIFSKNCNNSFAECSSQDVVTKPDCNCLYPKAIPSSDPASVSPHQPLAPSMAPVAGLTWEDSEGTEGSSLLPGEQPLHTVDPGSAKQRPPRSTCQSFEPPETPVVKDSTIGGSPQPRPSVGAFNPGMEDILDSAMGTNWVPEEASGEASEIPVPQGTELSPSRPGGGSMQTEPARPSNFLSASSPLPASAKGQQPADVTGTALPRVGPVRPTGQDWNHTPQKTDHPSALLRDPPEPGSPRISSLRPQGLSNPSTLSAQPQLSRSHSSGSVLPLGELEGRRSTRDRRSPAEPEGGPASEGAARPLPRFNSVPLTDTGHERQSEGSFSPQLQESVFHLLVPSVILVLLAVGGLLFYRWRRRSHQEPQRADSPLEQPEGSPLTQDDRQVELPV
Mature osteoclasts
  cytokine-promoted survival in c-Src−/− osteoclasts compared to wild-type: not reduced

B2: IL-1α: recombinant IL-1 purchased from R&D Systems (protein, UniProt P01583 113-271, looked up)
Interleukin-1 alpha: SAPFSFLSNVKYNFMRIIKYEFILNDALNQSIIRANDQYLTAAALHNLDEAVKFDMGAYKSSKDDAKITVILRISKTQLYVTAQDEDQPVLLKEMPEIPKTITGSETNLLFFWETHGTKNYFTSVAHPNLFIATKQDYWVCLAGGPPSITDFQILENQA
PKB [2]; TNF 10 ng/ml, TRANCE 5 μg/ml, LPS 50 μg/ml, IL-1α 20 ng/ml, CD40L data not shown
  PKB activation in dendritic cells stimulated with cytokine: activated
